From BindingDB's records for patent US20250034165 (Chia Tai Tianqing Pharmaceutical Group, 2025)

Key:
[1] = target: Epidermal growth factor receptor (Homo sapiens, UniProt P00533); experiment: Inhibitory Activity for EGFR (WT) Kinase
Description: A 50 ng/μL EGFR (WT, Carna) stock solution was diluted with a kinase buffer (50 mM HEPES, 10 mM MgCl2, 2 mM DTT, 1 mM EGTA, 0.01% Tween 20), and 6 μL of 1.67× working solution at 0.005 ng/μL (final concentration: 0.003 ng/μL) was added to each well. Different compounds dissolved in DMSO were added to the wells using a nanoliter pipettor, resulting in the final concentrations of the compounds of 100 nM to 0.0244 nM (4-fold gradient for 7 concentrations in total), and blank control wells (without enzyme) and negative control wells (with enzyme, plus vehicle DMSO) were set, 2 replicate wells for each concentration. After enzyme was reacted with the compound or vehicle for 30 min, 5×ATP at 25 μM (final concentration: 5 μM, Sigma) prepared with a kinase buffer was mixed with 5× substrate at 0.5 μM (final concentration: 0.1 μM, ULight-poly GT, PerkinElmer) at a ratio of 1:1 (v:v), and the mixture was added to each well at 4 μL/well. After being sealed with a film, the plate was incubated at room temperature for 2 h, and then 5 μL of 4×EDTA at 40 mM (final concentration: 10 mM) was added to each well. After the plate was incubated for 5 min at room temperature, 5 μL of 4× detection reagent at 8 nM (final concentration: 2 nM, Eu-anti-phospho-tyrosine antibody, PerkinElmer) was added to each well.

[2] = target: Epidermal growth factor receptor [T790M,C797S,L858R] (UniProt P00533, C797S/L858R/T790M); experiment: Inhibitory Activity for EGFR (L858R/T790M/C797S) Kinase
Sequence of Epidermal growth factor receptor [T790M,C797S,L858R] (P00533 25-1210 T790M/C797S/L858R limits assumed): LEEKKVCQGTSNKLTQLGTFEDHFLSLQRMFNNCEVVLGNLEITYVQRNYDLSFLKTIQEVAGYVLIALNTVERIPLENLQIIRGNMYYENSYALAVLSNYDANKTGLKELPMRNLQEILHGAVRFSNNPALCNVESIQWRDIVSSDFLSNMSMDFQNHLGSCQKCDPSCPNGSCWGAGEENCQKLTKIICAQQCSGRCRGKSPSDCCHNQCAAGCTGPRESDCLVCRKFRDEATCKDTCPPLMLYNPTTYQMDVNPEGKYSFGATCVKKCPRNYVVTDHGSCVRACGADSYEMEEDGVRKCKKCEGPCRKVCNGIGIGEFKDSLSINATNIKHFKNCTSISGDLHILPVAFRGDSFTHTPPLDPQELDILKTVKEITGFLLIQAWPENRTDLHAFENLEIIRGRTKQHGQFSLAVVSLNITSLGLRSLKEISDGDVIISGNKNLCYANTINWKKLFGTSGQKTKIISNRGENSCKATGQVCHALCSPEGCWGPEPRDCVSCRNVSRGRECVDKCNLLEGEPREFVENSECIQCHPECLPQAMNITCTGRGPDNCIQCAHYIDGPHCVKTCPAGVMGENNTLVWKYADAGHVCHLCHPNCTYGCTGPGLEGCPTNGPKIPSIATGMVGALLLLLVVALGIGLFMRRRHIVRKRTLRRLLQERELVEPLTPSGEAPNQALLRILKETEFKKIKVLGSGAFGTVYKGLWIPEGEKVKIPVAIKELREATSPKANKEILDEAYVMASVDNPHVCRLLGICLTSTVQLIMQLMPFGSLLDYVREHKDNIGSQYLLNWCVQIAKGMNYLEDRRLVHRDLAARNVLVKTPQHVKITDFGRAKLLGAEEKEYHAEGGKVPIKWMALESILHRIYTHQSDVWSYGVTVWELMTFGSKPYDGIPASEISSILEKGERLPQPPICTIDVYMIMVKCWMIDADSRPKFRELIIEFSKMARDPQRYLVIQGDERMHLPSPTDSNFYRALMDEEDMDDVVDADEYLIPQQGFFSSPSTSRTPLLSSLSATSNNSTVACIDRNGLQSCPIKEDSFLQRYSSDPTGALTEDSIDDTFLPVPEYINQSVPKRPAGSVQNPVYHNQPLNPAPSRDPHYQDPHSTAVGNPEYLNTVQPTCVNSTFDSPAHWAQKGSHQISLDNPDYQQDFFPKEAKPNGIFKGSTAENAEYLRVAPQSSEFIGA
Description: (§1) A 50 ng/μL EGFR (L858R/T790M/C797S, BPS) stock solution was diluted with a kinase buffer (50 mM HEPES, 10 mM MgCl2, 2 mM DTT, 1 mM EGTA, 0.01% Tween 20), and 6 μL of 1.67× working solution at 0.00167 ng/μL (final concentration: 0.001 ng/μL) was added to each well. Different compounds dissolved in DMSO were added to wells using a nanoliter pipettor, resulting in the final concentrations of the compounds of 10 nM to 0.0024 nM (4-fold gradient, 7 concentrations in total), and blank control wells (without enzyme) and negative control wells (with enzyme, plus vehicle DMSO) were set, 2 replicate wells for each concentration. After enzyme was reacted with the compound or vehicle for 30 min, 5×ATP at 25 μM (final concentration: 5 μM, Sigma) prepared with a kinase buffer was mixed with 5× substrate at 0.5 μM (final concentration: 0.1 μM, ULight-poly GT, PerkinElmer) at a ratio of 1:1 (v:v), and the mixture was added to each well at 4 μL/well. After being sealed with a film, the plate was incubated at room temperature for 2 h, and then 5 μL of 4×EDTA at 40 mM (final concentration: 10 mM) was added to each well. After the plate was incubated for 5 min at room temperature, 5 μL of 4× detection reagent at 8 nM (final concentration: 2 nM, Eu-anti-phospho-tyrosine antibody, PerkinElmer) was added to each well. After being incubated at room temperature for 1 h, the plate was read using a PerkinElmer Envision multi-mode microplate reader (excitation: 320 nm, emission: 665 nm), and IC50 was calculated by four-parameter fitting.

[3] = target: Epidermal growth factor receptor (EGFR)(L858R)(T790M) (Homo sapiens, UniProt P00533, L858R/T790M); experiment: Inhibitory Activity for EGFR (L858R/T790M) Kinase
Sequence of Epidermal growth factor receptor (EGFR)(L858R)(T790M) (P00533 25-1210 T790M/L858R limits assumed): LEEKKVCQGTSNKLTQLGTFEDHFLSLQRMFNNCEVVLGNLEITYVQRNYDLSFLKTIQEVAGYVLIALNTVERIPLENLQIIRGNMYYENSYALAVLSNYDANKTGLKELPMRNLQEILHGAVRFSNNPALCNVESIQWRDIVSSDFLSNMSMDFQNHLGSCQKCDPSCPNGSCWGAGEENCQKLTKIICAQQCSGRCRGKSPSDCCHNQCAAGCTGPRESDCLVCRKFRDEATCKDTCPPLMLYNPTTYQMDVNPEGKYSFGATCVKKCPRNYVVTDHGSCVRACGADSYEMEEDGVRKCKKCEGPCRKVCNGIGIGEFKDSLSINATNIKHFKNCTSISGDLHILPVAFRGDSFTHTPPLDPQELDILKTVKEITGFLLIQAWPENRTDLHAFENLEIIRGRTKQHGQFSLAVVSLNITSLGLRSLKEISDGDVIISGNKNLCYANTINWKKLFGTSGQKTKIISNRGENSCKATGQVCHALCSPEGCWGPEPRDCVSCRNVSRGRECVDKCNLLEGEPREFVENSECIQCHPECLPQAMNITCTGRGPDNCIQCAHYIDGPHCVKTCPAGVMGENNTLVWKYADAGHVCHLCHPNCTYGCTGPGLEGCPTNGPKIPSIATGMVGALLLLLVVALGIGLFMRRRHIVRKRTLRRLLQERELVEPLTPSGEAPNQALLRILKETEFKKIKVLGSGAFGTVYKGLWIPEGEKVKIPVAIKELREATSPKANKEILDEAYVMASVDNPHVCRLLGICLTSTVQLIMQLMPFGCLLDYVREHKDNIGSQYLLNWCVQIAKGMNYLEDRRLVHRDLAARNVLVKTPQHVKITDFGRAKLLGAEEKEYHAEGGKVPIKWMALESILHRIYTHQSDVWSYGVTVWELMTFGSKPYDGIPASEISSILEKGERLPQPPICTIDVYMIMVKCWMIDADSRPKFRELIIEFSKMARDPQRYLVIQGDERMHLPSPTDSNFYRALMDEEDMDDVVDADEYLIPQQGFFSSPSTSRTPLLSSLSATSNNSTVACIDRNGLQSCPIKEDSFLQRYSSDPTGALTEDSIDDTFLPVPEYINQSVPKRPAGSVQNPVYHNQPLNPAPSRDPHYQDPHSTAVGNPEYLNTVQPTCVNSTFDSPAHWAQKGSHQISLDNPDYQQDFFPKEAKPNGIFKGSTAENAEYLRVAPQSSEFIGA
Description: as §1, with “(L858R/T790M, Carna)” for “(L858R/T790M/C797S, BPS)”, “0.004175” for “0.00167”, “0.0025” for “0.001”

Sequence of Epidermal growth factor receptor (P00533 whole entry): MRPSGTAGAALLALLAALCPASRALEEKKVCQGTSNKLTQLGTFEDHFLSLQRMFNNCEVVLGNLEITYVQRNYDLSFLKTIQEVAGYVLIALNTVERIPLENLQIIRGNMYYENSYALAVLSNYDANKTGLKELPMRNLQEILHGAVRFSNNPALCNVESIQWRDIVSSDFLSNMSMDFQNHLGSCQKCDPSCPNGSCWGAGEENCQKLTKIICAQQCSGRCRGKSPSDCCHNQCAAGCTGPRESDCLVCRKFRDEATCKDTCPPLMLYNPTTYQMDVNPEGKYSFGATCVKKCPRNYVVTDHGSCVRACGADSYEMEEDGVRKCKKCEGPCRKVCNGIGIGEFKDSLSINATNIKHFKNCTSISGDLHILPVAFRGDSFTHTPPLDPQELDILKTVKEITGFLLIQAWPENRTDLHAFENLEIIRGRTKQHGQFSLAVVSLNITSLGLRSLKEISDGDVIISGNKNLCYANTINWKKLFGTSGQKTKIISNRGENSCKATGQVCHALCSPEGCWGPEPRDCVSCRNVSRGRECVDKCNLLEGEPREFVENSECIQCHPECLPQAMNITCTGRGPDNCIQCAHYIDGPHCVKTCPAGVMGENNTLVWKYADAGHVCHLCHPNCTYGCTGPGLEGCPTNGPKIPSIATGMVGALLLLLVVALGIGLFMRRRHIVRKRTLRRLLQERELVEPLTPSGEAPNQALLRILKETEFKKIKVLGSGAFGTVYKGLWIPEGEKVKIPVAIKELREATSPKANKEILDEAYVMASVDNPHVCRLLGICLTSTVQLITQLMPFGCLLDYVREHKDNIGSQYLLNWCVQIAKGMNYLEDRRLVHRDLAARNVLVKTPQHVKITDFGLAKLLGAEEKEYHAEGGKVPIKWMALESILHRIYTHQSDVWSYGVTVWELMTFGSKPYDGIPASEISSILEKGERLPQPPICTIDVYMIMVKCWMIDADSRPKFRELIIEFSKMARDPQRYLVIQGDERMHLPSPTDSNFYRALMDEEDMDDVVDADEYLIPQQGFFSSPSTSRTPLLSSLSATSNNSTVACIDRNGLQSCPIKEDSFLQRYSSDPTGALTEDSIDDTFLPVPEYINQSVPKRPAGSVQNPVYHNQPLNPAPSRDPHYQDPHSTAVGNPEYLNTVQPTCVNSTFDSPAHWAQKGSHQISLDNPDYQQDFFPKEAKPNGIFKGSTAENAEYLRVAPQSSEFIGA

`Cc1cc2cc(n1)-c1cnn(C)c1OCCC[C@@H](C1CC1)CN1/C(=N/C2=O)Nc2ccc(NCCN(C)C)cc21` [US20250034165, Example 28] gave an IC50 [1] of 0.45 nM.

In the case of `Cc1cc2cc(n1)-c1cnn(C)c1OCCC[C@@H](C1CC1)CN1/C(=N/C2=O)Nc2cc(N[C@H](C)CN(C)C)ccc21` [US20250034165, Example 67], the IC50 [2] is reported as 0.49 nM and the IC50 [3] is reported as 0.14 nM.

Work on `Cc1cc2cc(n1)-c1cnn(C)c1OCCC[C@@H](C1CC1)CN1/C(=N/C2=O)Nc2cc(NC(C)C3(C)COC3)ccc21` (some centres not stated) [US20250034165, Example 89] yielded an IC50 [2] of 0.6 nM and an IC50 [3] of 0.8 nM.

For `Cc1cc2cc(n1)-c1cnn(C)c1OCCC[C@@H](C1CC1)CN1/C(=N/C2=O)Nc2cc(NC3CC(N(C)C)C3)ccc21` (some centres not stated) [US20250034165, Example 93], the IC50 [2] was 0.5 nM and the IC50 [3] was 0.61 nM.

`Cc1cc2cc(n1)-c1cnn(C)c1OCCC[C@@H](C1CC1)CN1/C(=N/C2=O)Nc2ccc(NC3CC(N(C)C)C3)cc21` (some centres not stated) [US20250034165, Example 98] showed an IC50 [2] of 0.28 nM and an IC50 [3] of 0.26 nM.

Work on `Cc1cc2cc(n1)-c1cnn(C)c1OCCC[C@@H](C1CC1)CN1/C(=N/C2=O)Nc2ccc(N[C@H]3CC[C@@H](N(C)C)CC3)cc21` [US20250034165, Example 99] yielded an IC50 [2] of 0.21 nM.

`Cc1cc2cc(n1)-c1cnn(C)c1OCCC[C@@H](C1CC1)CN1/C(=N/C2=O)Nc2ccc(N[C@H]3CC[C@H](N(C)C)CC3)cc21` [US20250034165, Example 100] gave an IC50 [3] of 0.23 nM.

Work on `Cc1cc2cc(n1)-c1cnn(C)c1OCCC[C@@H](C1CC1)CN1/C(=N/C2=O)Nc2ccc(NC(=O)CN(C)C)cc21` [US20250034165, Example 111] yielded an IC50 [3] of 0.26 nM.

In the case of `Cc1cc2cc(n1)-c1cnn(C)c1OCCC[C@@H](C1CC1)CN1/C(=N/C2=O)Nc2ccc(NC(=O)CCN(C)C)cc21` [US20250034165, Example 112], the IC50 [2] is reported as 0.12 nM and the IC50 [3] is reported as 0.14 nM.

`Cc1cc2cc(n1)-c1cnn(C)c1OCCC[C@@H](C1CC1)CN1/C(=N/C2=O)Nc2ccc(NC(=O)CCCN(C)C)cc21` [US20250034165, Example 113] was tested, and the IC50 [2] was 0.12 nM and the IC50 [3] was 0.15 nM.

`Cc1cc2cc(n1)-c1cnn(C)c1OCCC[C@@H](C1CC1)CN1/C(=N/C2=O)Nc2ccc(N(C)C3CCN(C)CC3)cc21` [US20250034165, Example 117] was tested, and the IC50 [2] was 0.45 nM and the IC50 [3] was 0.77 nM.

`Cc1cc2cc(n1)-c1cnn(C)c1OCCC[C@@H](C1CC1)CN1/C(=N/C2=O)Nc2cc(N[C@H]3C[C@@H](N(C)C)C3)ccc21` [US20250034165, Example 125] was tested, and the IC50 [2] was 0.094 nM and the IC50 [3] was 0.17 nM.

Work on `Cc1cc2cc(n1)-c1cnn(C)c1OCCC[C@@H](C1CC1)CN1/C(=N/C2=O)Nc2cc(N[C@H]3C[C@H](N(C)C)C3)ccc21` [US20250034165, Example 126] yielded an IC50 [3] of 0.12 nM.

`Cc1cc2cc(n1)-c1cnn(C)c1OCCC[C@@H](C1CC1)CN1/C(=N/C2=O)Nc2ccc(N[C@H]3C[C@@H](N(C)C)C3)cc21` [US20250034165, Example 127] was tested, and the IC50 [2] was 0.35 nM and the IC50 [3] was 0.41 nM.

With `Cc1cc2cc(n1)-c1cnn(C)c1OCCC[C@@H](C1CC1)CN1/C(=N/C2=O)Nc2ccc(N[C@H]3C[C@H](N(C)C)C3)cc21` [US20250034165, Example 128] the IC50 [2] was 0.46 nM and the IC50 [3] was 0.63 nM.

Work on `Cc1cc2cc(n1)-c1cnn(C)c1OCCC[C@@H](C1CC1)CN1/C(=N/C2=O)Nc2cc(N[C@@H]3CC[C@@H](N(C)C)C3)ccc21` [US20250034165, Example 129] yielded an IC50 [2] of 0.39 nM and an IC50 [3] of 0.3 nM.

In the case of `Cc1cc2cc(n1)-c1cnn(C)c1OCCC[C@@H](C1CC1)CN1/C(=N/C2=O)Nc2ccc(N[C@@H]3CC[C@@H](N(C)C)C3)cc21` [US20250034165, Example 130], the IC50 [2] is reported as 0.36 nM and the IC50 [3] is reported as 0.3 nM.

`Cc1cc2cc(n1)-c1cnn(C)c1OCCC[C@@H](C1CC1)CN1/C(=N/C2=O)Nc2cc(N[C@H]3CC[C@@H](N(C)C)C3)ccc21` [US20250034165, Example 131] showed an IC50 [3] of 0.094 nM.

`Cc1cc2cc(n1)-c1cnn(C)c1OCCC[C@@H](C1CC1)CN1/C(=N/C2=O)Nc2ccc(N[C@H]3CC[C@@H](N(C)C)C3)cc21` [US20250034165, Example 132] was tested, and the IC50 [3] was 0.082 nM.

In the case of `Cc1cc2cc(n1)-c1cnn(C)c1OCCC[C@@H](C1CC1)CN1/C(=N/C2=O)Nc2cc(N[C@@H]3CC[C@H](N(C)C)C3)ccc21` [US20250034165, Example 133], the IC50 [2] is reported as 0.66 nM and the IC50 [3] is reported as 0.49 nM.

`Cc1cc2cc(n1)-c1cnn(C)c1OCCC[C@@H](C1CC1)CN1/C(=N/C2=O)Nc2ccc(N[C@@H]3CC[C@H](N(C)C)C3)cc21` [US20250034165, Example 134] showed an IC50 [2] of 0.48 nM and an IC50 [3] of 0.55 nM.

`Cc1cc2cc(n1)-c1cnn(C)c1OCCC[C@@H](C1CC1)CN1/C(=N/C2=O)Nc2cc(N[C@H]3CC[C@H](N(C)C)C3)ccc21` [US20250034165, Example 135] was tested, and the IC50 [2] was 0.43 nM and the IC50 [3] was 0.32 nM.

With `Cc1cc2cc(n1)-c1cnn(C)c1OCCC[C@@H](C1CC1)CN1/C(=N/C2=O)Nc2ccc(N[C@H]3CC[C@H](N(C)C)C3)cc21` [US20250034165, Example 136] the IC50 [2] was 0.34 nM and the IC50 [3] was 0.71 nM.

`Cc1cc2cc(n1)-c1cnn(C)c1OCCC[C@@H](C1CC1)CN1/C(=N/C2=O)Nc2cc(N[C@H](C)CN3CCCCC3)ccc21` [US20250034165, Example 137] showed an IC50 [2] of 0.52 nM and an IC50 [3] of 0.13 nM.

`Cc1cc2cc(n1)-c1cnn(C)c1OCCC[C@@H](C1CC1)CN1/C(=N/C2=O)Nc2cc(N[C@@H](C)CN3CCCCC3)ccc21` [US20250034165, Example 138] was tested, and the IC50 [2] was 0.35 nM and the IC50 [3] was 0.13 nM.

`Cc1cc2cc(n1)-c1cnn(C)c1OCCC[C@@H](C1CC1)CN1/C(=N/C2=O)Nc2cc(N[C@H](C)CCN3CCCCC3)ccc21` [US20250034165, Example 139] gave an IC50 [2] of 0.21 nM and an IC50 [3] of 0.087 nM.

Compound `Cc1cc2cc(n1)-c1cnn(C)c1OCCC[C@@H](C1CC1)CN1/C(=N/C2=O)Nc2cc(N[C@@H](C)CCN3CCCCC3)ccc21` [US20250034165, Example 140] has an IC50 [2] of 0.3 nM and an IC50 [3] of 0.11 nM.

`Cc1cc2cc(n1)-c1cnn(C)c1OCCC[C@@H](C1CC1)CN1/C(=N/C2=O)Nc2ccc(N[C@H](C)CN3CCCCC3)cc21` [US20250034165, Example 141] was tested, and the IC50 [2] was 0.24 nM and the IC50 [3] was 0.084 nM.

Compound `Cc1cc2cc(n1)-c1cnn(C)c1OCCC[C@@H](C1CC1)CN1/C(=N/C2=O)Nc2ccc(N[C@@H](C)CN3CCCCC3)cc21` [US20250034165, Example 142] has an IC50 [2] of 0.35 nM and an IC50 [3] of 0.14 nM.

Work on `Cc1cc2cc(n1)-c1cnn(C)c1OCCC[C@@H](C1CC1)CN1/C(=N/C2=O)Nc2ccc(N[C@H](C)CCN3CCCCC3)cc21` [US20250034165, Example 143] yielded an IC50 [2] of 0.4 nM and an IC50 [3] of 0.11 nM.

Work on `Cc1cc2cc(n1)-c1cnn(C)c1OCCC[C@@H](C1CC1)CN1/C(=N/C2=O)Nc2ccc(N[C@@H](C)CCN3CCCCC3)cc21` [US20250034165, Example 144] yielded an IC50 [2] of 0.17 nM and an IC50 [3] of 0.08 nM.

Compound `Cc1cc2cc(n1)-c1cnn(C)c1OCCC[C@@H](C1CC1)CN1/C(=N/C2=O)Nc2cc(N[C@H]3CC[C@H](O)CC3)ccc21` [US20250034165, Example 151] has an IC50 [2] of 0.25 nM and an IC50 [3] of 0.23 nM.
